Data set [1] deals with HL-60(TB). The data set is described as follows: NCI60 screen. It is filed as cell-based. The following applies: Homo sapiens, HL-60, read-out: inhibition of cell growth.
Data set [2] concerns K-562. The data set is described as follows: NCI60 screen. It is filed as cell-based. The following applies: Homo sapiens, K562, read-out: inhibition of cell growth.
The subject of data set [3] is SR. Kind of data set: NCI60 screen. Format: cell-based. The following applies: Homo sapiens, read-out: inhibition of cell growth.
The subject of data set [4] is COLO 205. Kind of data set: NCI60 screen. It is filed as cell-based. As to conditions: Homo sapiens, COLO 205, read-out: inhibition of cell growth.
Data set [5] concerns HCT-116. The data set is described as follows: NCI60 screen. It is filed as cell-based. As to conditions: Homo sapiens, HCT-116, read-out: inhibition of cell growth.
Data set [6] concerns HCT-15. Kind of data set: NCI60 screen. It is filed as cell-based. The following applies: Homo sapiens, HCT-15, read-out: inhibition of cell growth.
The test system of data set [7] is HT29. The data set is described as follows: NCI60 screen. As to conditions: Homo sapiens, HT-29, read-out: inhibition of cell growth. It is filed as cell-based.
Data set [8] deals with SW-620. Kind of data set: NCI60 screen. Format: cell-based. As to conditions: Homo sapiens, SW-620, read-out: inhibition of cell growth.
Data set [9] deals with MDA-MB-435. The data set is described as follows: NCI60 screen. It is filed as cell-based. As to conditions: Homo sapiens, MDA-MB-435, read-out: inhibition of cell growth.
Data set [10] concerns UACC-257. The data set is described as follows: NCI60 screen. The following applies: Homo sapiens, UACC-257, read-out: inhibition of cell growth. It is filed as cell-based.
The test system of data set [11] is UACC-62. The data set is described as follows: NCI60 screen. Format: cell-based. The following applies: Homo sapiens, UACC-62, read-out: inhibition of cell growth.
Data set [12] concerns OVCAR-3. The data set is described as follows: NCI60 screen. Format: cell-based. As to conditions: Homo sapiens, OVCAR-3, read-out: inhibition of cell growth.
Data set [13] has as its system CAKI-1. Kind of data set: NCI60 screen. Format: cell-based. As to conditions: Homo sapiens, CAKI-1, read-out: inhibition of cell growth.
Data set [14] relates to RXF 393. The data set is described as follows: NCI60 screen. The following applies: Homo sapiens, RXF 393, read-out: inhibition of cell growth. It is filed as cell-based.
Data set [15] relates to TK-10. Kind of data set: NCI60 screen. Format: cell-based. As to conditions: Homo sapiens, TK-10, read-out: inhibition of cell growth.
Data set [16] relates to DU-145. Kind of data set: NCI60 screen. As to conditions: Homo sapiens, DU-145, read-out: inhibition of cell growth. It is filed as cell-based.
Data set [17] has as its system MCF7. Kind of data set: NCI60 screen. It is filed as cell-based. The following applies: Homo sapiens, MCF7, read-out: inhibition of cell growth.
Data set [18] deals with BT-549. The data set is described as follows: NCI60 screen. As to conditions: Homo sapiens, BT-549, read-out: inhibition of cell growth. It is filed as cell-based.
The subject of data set [19] is T-47D. The data set is described as follows: NCI60 screen. It is filed as cell-based. The following applies: Homo sapiens, T47D, read-out: inhibition of cell growth.
The test system of data set [20] is NCI60 human tumor cell lines. The data set is described as follows: NCI60 screen. Format: cell-based.
Data set [21] can be described thus: Effect on hematopoiesis.
A short description of data set [22]: Immunosuppressive activity.
Data set [23] has as its system larvae of marine crustaceans Artemia salina (Leach). The data set is described as follows: Brine shrimp toxicity bioassay. Format: in vivo. As to conditions: 24 h of exposure.

The term inhibition denotes the change of the read-out against control, counted positive when it falls.

`C=C1C(=O)O[C@@H]2[C@H]3C(C)=CC[C@@]34O[C@@]4(C)CC[C@@H]12` [Arglabin 6, arglabin]: the inhibition at 8.3 µM amounted to 97.4% in data set [1]; 73.8% in data set [2]; 97.8% in [3]; 57.6% in [4]; 82.6% in data set [5]; 75.4% in data set [6]. Also, the inhibition at 8.3 µM in data set [7] was determined as 59.3%; in data set [8] it was 70.9%; in data set [9], 65.8%; in data set [10] it was 55.9%; in data set [11], 74.2%; in [12], 69.6%. Besides, the inhibition at 8.3 µM in [13] was determined as 73.4%; in data set [14], 67.3%; in [15] it was 94.3%; in data set [16] it was 88.5%; in [17] it was 71.1%; in data set [18], 72.1%. Further, the inhibition at 8.3 µM in data set [19] stood at 73.5%; in [20] (Homo sapiens, read-out: average value of cell growth inhibition for all 60 NCI60 human tumor cell lines) it was 45.9%. Also, the “Mean tumor cell growth, %” value in data set [20] (mean over NCI60 panel, single dose 8.3 μM) came out at 54.15%. In addition, in data set [21], the “depressant effect on hematopoiesis” value is recorded as “does not have a depressant effect on hematopoiesis”. In addition, the immunosuppressive activity entry in [22] is listed as “does not exhibit immunosuppressive activity”.
Turning to `CC1=CCC23OC2(C)CCC2C(CN(C)C)C(=O)OC2C13.Cl` (stereo not drawn) [13-dimethylamino-1,10β-epoxy-5,7α,6, 11 β(H)-guai-3,4-ene-6,12-olide hydrochloride, reference compound], the “LD500” value in data set [23] was found to be 20.6 mg/mL.
Regarding “hydroxyarglabin acetate [hydroxyarglabin acetate 12]”, in data set [23], the “IC50 against the larvae of Artemia salina” value was found to be 77.8 µg/mL and the “LD500” value was determined as 77.8 mg/mL.
Consider `C[S+](C)[O-]` [dimethyl sulfoxide], for which the “LD500” value in data set [23] is 930.27 mg/mL.
